Results as given in patent US9486434B2, “Method for delivery and use of isothiocyanates for prophylaxis and/or therapy of bladder cancer” (Health Research Inc., priority 2010, dated 2016).
Where two headings read alike, the source gives them in different places.

How the values were obtained:
[1] = tested on: rat bladder cancer AY-27 cells; assay: MTT cell growth and proliferation assay, AY-27 cells; type: cell-based; details: Rattus norvegicus, read-out: IC50, inhibition of cell proliferation
Procedure: (§1) FIG. 3. The effect of AITC on cell survival and proliferation. AITC was evaluated at the indicated concentrations in human bladder cancer UM-UC-3 cells, rat bladder cancer AY-27 cells, and normal human bladder epithelial cells (HUC). A. Cell growth inhibition, measured by MTT assay, 72-h AITC treatment. IC50 was calculated from nonlinear regression curve fit. B. Cell cycle arrest (□, subG1; ? , G1; ? , 5; ▪, G2/M), measured by flow cytometry, 24 h AITC treatment. C. Apoptosis induction, measured by an ELISA assay, 24 h AITC treatment. Mean±SE, n=3-6), *P<0.05.
(§2) FIG. 10. The effect of NAC-AITC on cell survival and proliferation. NAC-AITC was evaluated in both UM-UC-3 cells and AY-27 cells. (A) Chemical structures of AITC and NAC-AITC. (B) Cell growth and proliferation, measured by 3-([…])-2,5-diphenyltetrazolium bromide assay, 72 h treatment with AITC or NAC-AITC at indicated concentrations. IC50 was calculated from the non-linear regression curve fit. (C) Apoptosis, measured by an enzyme-linked immunosorbent assay, 24 h NAC-AITC treatment at 15 µM. (D) Cell cycle (open bars, G1; shaded bars, S; closed bars, G2/M), measured by flow cytometry, 24 h NAC-AITC treatment at 15 μM. *P<, 0.005, compared with control.
Assays for cell proliferation, cell cycle arrest and apoptosis. To determine the antiproliferative activity of NAC-AITC, AY-27 cells were grown in 96-well microtiter plates ([…] with 0.15 ml medium per well) for 24 h and then grown for 72 h in fresh medium (0.2 ml/well) containing a series of concentrations of NAC-AITC or solvent. Cell growth was measured at the end of treatment using the 3-([…])-2,5-diphenyltetrazolium bromide assay, from which the half maximal inhibitory concentration (IC50) of NAC-AITC was calculated. AITC was also evaluated for comparison.

[2] = tested on: AY-27 cells; assay: Cell cycle arrest by flow cytometry, AY-27 cells; type: cell-based, rat; details: 24 h
Procedure: as §1, §2
The effect of NAC-AITC on cell cycle progression was measured by flow cytometry as described previously. Briefly, 1.5×10^6 AY-27 cells were grown in each 10-cm plate with 10 ml medium for 24 h and then treated with NAC-AITC or solvent for 24 h before analysis. Induction of apoptosis by NAC-AITC was measured using the Cell Death Detection ELISA^plus kit (Roche Diagnostics, Indianapolis, Ind.), following the manufacturer's instruction. […] At the end of treatment, the cells were treated with lysis buffer, and after a low-speed centrifugation, a portion of the supernatant fraction was used for spectroscopic measurement (expressed as A405-490 nm) of cytoplasmic levels of histone-associated mononucleosomes or oligonucleosomes by an enzyme-linked immunosorbent assay. […]

[3] = tested on: UM-UC-3 cells; assay: Apoptosis induction ELISA (histone-associated DNA), UM-UC-3 cells; type: cell-based, human; details: 24 h
Procedure: as §1, §2
The effect of NAC-AITC on cell cycle progression was measured by flow cytometry as described previously. […]

[4] = tested on: orthotopic AY-27 bladder tumor; assay: Orthotopic rat bladder cancer model; type: in vivo, rat (female F344); details: for tumor-bearing bladders showing muscle invasion: control 71%
From the text: FIG. 6. […] Female F344 rats were inoculated intravesically with bladder cancer AY-27 cells to initiate development of orthotopic bladder tumor. Oral administration of AITC at 0, 10, 25, 50 and 300 micromols/kg once daily was started 1 day after AY-27 cell inoculation and ended 3 weeks later. The number of rats per group varied from 6 to 33; some of the data, particularly the control group (n=33) and the group treated with the lowest dose of AITC (n=23), were pooled from several experiments. A. The initial and final body weights. B. The weights of bladder tumors. […] C. Percentage of bladders where the tumor invaded the muscle tissue. D. H/E staining of the normal rat bladder wall (D1), a superficial rat bladder tumor (D2), and a rat bladder tumor that invaded the muscle layer (D3).
FIG. 8. […] Female F344 rats were inoculated with AY-27 cells intravesically via a urethra catheter to initiate development of orthotopic bladder cancer. Oral administration of MSP-1 of vehicle (water) once daily was started 1 day after cancer cell inoculation and ended 3 weeks later. The number of rats per group varied from 11-29. A. Initial (□) and final (▪) body weights. […] Each value in A and B is mean±SEM. C. Percentage of bladder where the tumor invaded the muscle tissue. D. The effects of MSP-1 on selected anticancer targets in UM-UC-3 cells (in vitro), AY-27 cells (in vitro) and AY-27 tumors (in vivo). […] The bladder tumors were removed from rats treated with MSP-1 at the sinigrin doses of 9 or 90 micromols/kg once daily for 3 weeks, started 1 day after cancer cell inoculation. Cell lysates and tumor homogenates were analyzed by Western blotting, using GAPDH as a loading control.
FIG. 9. […] Female F344 rats were inoculated with bladder cancer AY-27 cells to initiate development of orthotopic bladder tumor. Oral administration of the powder (sinigrin and glucoraphanin: each at 10 micromols/kg) once daily was started 1 day after AY-27 cell inoculation and ended 3 weeks later. The number of rats per group was 9-10. Each value is mean±SE.
FIG. 12. […] Bladder cancer was initiated in female F344 rats by orthotopic inoculation of bladder cancer AY-27 cells. Oral administration of NAC-AITC at 10 μmmol/kg body wt once daily was started 1 day after cancer cell inoculation and ended 3 weeks later. There were 23 rats in the control group and 15 rats in the treatment group. (A) The initial (open bars) and final (closed bars) body weight. (B) Bladder tumor weight. Each value is a mean±SE. (C) Percentage of bladders where the tumor invaded the muscle tissue.
AITC was evaluated in an orthotopic rat bladder cancer model. […] Daily oral administration of AITC was initiated one day after instillation of AY-27 cells and continued for 3 weeks. AITC was evaluated at 4 dose levels: 10, 25, 50 and 300 micromols/kg. […] FIG. 6D depicts representative images of normal rat bladder wall (D1), a superficial AY-27 rat bladder tumor (D2), and a muscle-invasive AY-27 rat bladder tumor (D3).
A syngeneic orthotopic rat bladder cancer model.

[5] = 10 μmol/kg body wt oral once daily, 3 weeks

SMILES | IC50 ([1]; AY-27, 72 h) [µM] | cells in G2/M phase ([2]; AITC 7.5-15 microM, control 9.9-11.5%) [%] | increase in subG1 population ([2]; AITC) [fold] | increase in cytoplasmic levels of histone-associated DNA ([3]; AITC) | inhibition of muscle invasion [4, 5] [%] | inhibition of tumor growth [4, 5] [%] | tumor-bearing bladders showing muscle invasion ([4]; AITC 10 micromols/kg) [%] | tumor-bearing bladders showing muscle invasion ([4]; AITC 25 micromols/kg) [%] | tumor-bearing bladders showing muscle invasion ([4]; AITC 50 or 300 micromols/kg) [%] | inhibition of orthotopic bladder cancer growth ([4]; AITC 300 micromols/kg oral daily, 3 weeks) [%] | inhibition of tumor growth ([4]; AITC lower dose levels (10, 25, 50 micromols/kg) oral daily, 3 weeks) [%] | IC50 ([1]; AY-27, Example 9, 72 h treatment) [µM] | cells in G2/M phase ([2]; NAC-AITC 15 µM, control 11-12%) [%] | increase in apoptotic activity ([3]; 15 μM) [fold] | effect on body weight ([4]; NAC-AITC 10 μmol/kg daily, 3 weeks) | bladders with muscle invasion ([4]; NAC-AITC 10 μmol/kg, control 79%) [%]
C=CCN=C=S [AITC, allyl isothiocyanate] | 3.3 | ≤ 49 | ≤ 7.8 | up to 3.9 fold | 73 | 30 | 18.9 | 27 | 50 | 20 | 30 |  |  |  |  | 
C=CCNC(=S)SC[C@H](NC(C)=O)C(=O)O [NAC-AITC, N-acetyl-S—(N-allylthiocarbamoyl)cysteine] |  |  |  |  | 49 | 40 |  |  |  |  |  | 9.1 | 45 | 8.8 | no significant effect on body weight | 30
